Test results: US3939143A, “1-N-isoserylkanamycins and the production thereof” (Zaidan Hojin Biseibutsu Kagaku Kenkyu Kai, priority 1973, dated 1976)
Converted amounts (≈) assume the structure as drawn. Read-outs that look alike come from different tables or passages of the source.

Tests used:
[1] = test system: Pseudomonas aeruginosa 99; test: Minimum inhibitory concentration, serial dilution on nutrient agar; format: cell-based; conditions: Pseudomonas aeruginosa, 99, 18 h, read-out: Minimum Inhibitory Concentration
[2] = test system: Pseudomonas aeruginosa GN315; test: as above; format: cell-based; conditions: read-out: Minimum Inhibitory Concentration
Escherichia coli W677 = test: as above; format: cell-based; conditions: read-out: Minimum Inhibitory Concentration
[3] = test system: Escherichia coli LA290 R55; test: as above; format: cell-based; conditions: LA290R55, 18 h, read-out: Minimum Inhibitory Concentration
[4] = test system: Escherichia coli K-12 ML 1629; test: as above; format: cell-based; conditions: read-out: Minimum Inhibitory Concentration
Bacillus anthracis = test: microbe, parasite or virus in culture; format: cell-based; conditions: 18 h, read-out: Minimum Inhibitory Concentration
[5] = test system: Klebsiella pneumoniae 22 No. 3038; test: Minimum inhibitory concentration, serial dilution on nutrient agar; format: cell-based; conditions: 22NO.3038, 18 h, read-out: Minimum Inhibitory Concentration
Escherichia coli K-12 = test: as above; format: cell-based; conditions: read-out: Minimum Inhibitory Concentration
[6] = test system: Staphylococcus aureus Terajima; test: as above; format: cell-based; conditions: read-out: Minimum Inhibitory Concentration
[7] = test system: Corynebacterium bovis 1810; test: as above; format: cell-based; conditions: read-out: Minimum Inhibitory Concentration
[8] = test system: Bacillus subtilis NRRL B-558; test: as above; format: cell-based; conditions: read-out: Minimum Inhibitory Concentration
[9] = test system: gram-negative and gram-positive bacteria; test: antibacterial activity, in words; format: cell-based; conditions: for antibacterial activity relative to the DL-form (racemic form): optically active L- or D-isoseryl form
Procedure: (§1) The minimum inhibitory concentrations (mcg/ml) of 1-N-DL-isoserylkanamycin,1-N-DL-isoserylkanamycin B and 1-N-DL-isoseryl-3',4'-dideoxykanamycin B against various microorganisms were determined according to the serial dilution method using nutrient agar medium at 37°C, the estimation being effected after 18 hours incubation. For comparison purposes, the minimum inhibitory concentrations of kanamycin, kanamycin B and 3',4'-dideoxykanamycin B were also determined in the same manner and under the same conditions as mentioned above.
(§2) The antibacterial spectra of 1-N-DL-isoseryl-kanamycin (abbreviated as 1-IS-KM), 1-N-DL-isoseryl-kanamycin B (abbreviated as 1-IS-KMB) and 1-N-DL-isoseryl-3',4'-dideoxykanamycin B (abbreviated as 1-IS-DKB) are shown in the following table together with those of kanamycin (abbreviatedas KM), kanamycin B (abbreviated as KMB) and 3',4'-dideoxykanamycin B (abbreviated as DKB).

[10] = test system: Escherichia coli LA290 R56; test: Minimum inhibitory concentration, serial dilution on nutrient agar; format: cell-based; conditions: LA290R56, 18 h, read-out: Minimum Inhibitory Concentration
[11] = test system: drug-resistant strains of Escherichia coli and Pseudomonas aeruginosa; test: antibacterial activity against drug-resistant strains, in words; format: cell-based
[12] = test system: Escherichia coli K-12 ML 1410 R81; test: Minimum inhibitory concentration, serial dilution on nutrient agar; format: cell-based; conditions: 18 h, read-out: Minimum Inhibitory Concentration
[13] = test system: Salmonella enteritidis 1891; test: as above; format: cell-based; conditions: Salmonella enterica, read-out: Minimum Inhibitory Concentration
Salmonella typhosa T-63 = test: as above; format: cell-based; conditions: Salmonella enterica, 18 h, read-out: Minimum Inhibitory Concentration
[14] = acute toxicity upon intravenous injection in mice; format: in vivo; conditions: mouse, in vivo; intravenous injection, mice
[15] = test system: Escherichia coli JR66/W677; test: Minimum inhibitory concentration, serial dilution on nutrient agar; format: cell-based; conditions: JR66/W677, 37°C, 18 hours, read-out: Minimum Inhibitory Concentration
[16] = test system: Bacillus subtilis PCI 219; test: as above; format: cell-based; conditions: read-out: Minimum Inhibitory Concentration
[17] = test system: Escherichia coli K-12 ML 1410; test: as above; format: cell-based; conditions: read-out: Minimum Inhibitory Concentration
[18] = test system: Bacillus cereus ATCC 10702; test: as above; format: cell-based; conditions: read-out: Minimum Inhibitory Concentration
[19] = test system: Pseudomonas aeruginosa No.12; test: as above; format: cell-based; conditions: NO.12, 18 h, read-out: Minimum Inhibitory Concentration
Shigella sonnei JS 11746 = test: as above; format: cell-based; conditions: JS11746, 37°C, 18 hours
Procedure: as §1, §2

[20] = test system: Escherichia coli K-12 ML 1630; test: as above; format: cell-based; conditions: K12ML1630, 37°C, 18 hours
Procedure: as §1, §2

[21] = test system: Shigella flexneri 4b JS 11811; test: as above; format: cell-based; conditions: 4BJS11811, 37°C, 18 hours
Procedure: as §1, §2

[22] = test system: Pseudomonas aeruginosa A3; test: as above; format: cell-based; conditions: 37°C, 18 hours
Procedure: as §1, §2

[23] = test system: Pseudomonas aeruginosa TI-13; test: as above; format: cell-based; conditions: TI13, 37°C, 18 hours
Procedure: as §1, §2

Escherichia coli NIHJ = test: as above; format: cell-based; conditions: 18 h, read-out: Minimum Inhibitory Concentration
Proteus vulgaris OX 19 = test: as above; format: cell-based; conditions: read-out: Minimum Inhibitory Concentration
[24] = test system: Mycobacterium smegmatis ATCC 607; test: as above; format: cell-based; conditions: Mycolicibacterium smegmatis, read-out: Minimum Inhibitory Concentration
[25] = test system: Staphylococcus aureus FDA 209P; test: as above; format: cell-based; conditions: FDA209P, 18 h, read-out: Minimum Inhibitory Concentration
[26] = test system: Staphylococcus aureus Smith; test: as above; format: cell-based; conditions: read-out: Minimum Inhibitory Concentration
Sarcina lutea PCI 1001 = test: as above; format: cell-based; conditions: Micrococcus luteus, PCI1001, 18 h, read-out: Minimum Inhibitory Concentration
[27] = test system: Klebsiella pneumoniae PCI 602; test: as above; format: cell-based; conditions: read-out: Minimum Inhibitory Concentration
[28] = test system: Shigella dysenteriae JS 11910; test: as above; format: cell-based; conditions: JS11910, 18 h, read-out: Minimum Inhibitory Concentration
[29] = test system: Escherichia coli LA290 R64; test: as above; format: cell-based; conditions: LA290R64, 18 h, read-out: Minimum Inhibitory Concentration
mice = test: acute toxicity upon intravenous injection in mice; format: in vivo; conditions: optically active L- or D-isoseryl form
phosphotransferase = conditions: phosphorylation of the 3'-hydroxyl group; cited from earlier work
[30] = test system: kanamycin-resistant strains; conditions: phosphotransferase-producing resistant strains; cited from earlier work
[31] = test system: Escherichia coli JR66/W677; conditions: nucleotidyltransferase-producing resistant strain; cited from earlier work
nucleotidyltransferase = conditions: adenylylation of 2"-hydroxyl group with ATP; cited from earlier work

SMILES	MIC [1]	MIC [3]	MIC (Bacillus anthracis)	MIC [5]	MIC [10]	MIC [12]	MIC (Salmonella typhosa T-63)	MIC [15]	MIC [19]	MIC (Shigella sonnei JS 11746)	MIC [20]	MIC [21]	MIC [22]	MIC [23]	MIC (Escherichia coli NIHJ)	MIC [25]	MIC (Sarcina lutea PCI 1001)	MIC [28]	MIC [29]	antibacterial activity relative to the DL-form (racemic form) [9]	other results
NCC(O)C(=O)N[C@@H]1C[C@H](N)[C@@H](O[C@H]2O[C@H](CN)[C@@H](O)[C@H](O)[C@H]2N)[C@H](O)[C@H]1O[C@H]1O[C@H](CO)[C@@H](O)[C@H](N)[C@H]1O (mixture of isomers) [1-IS-KMB, 1-N-DL-isoserylkanamycin B]	6.25 µg/mL	1.56 µg/mL	< 0.2 µg/mL	6.25 µg/mL	0.78 µg/mL	3.13 µg/mL	0.78 µg/mL	12.5 µg/mL	6.25 µg/mL	6.25 µg/mL	3.13 µg/mL	3.13 µg/mL	6.25 µg/mL	6.25 µg/mL	3.13 µg/mL	1.56 µg/mL	6.25 µg/mL	6.25 µg/mL	0.78 µg/mL	–	MIC ([2]; GN315, 37°C, 18 hours): 50 µg/mL; MIC (Escherichia coli W677; W677, 37°C, 18 hours): 0.78 µg/mL; MIC ([4]; K12ML1629, 18 h): 3.13 µg/mL; MIC (Escherichia coli K-12; K12, 37°C, 18 hours): 1.56 µg/mL; MIC ([6]; 37°C, 18 hours): < 0.2 µg/mL; MIC ([7]; Corynebacterium bovis, 1810, 37°C, 18 hours): 1.56 µg/mL; MIC ([8]; NRRLB558, 37°C, 18 hours): < 0.2 µg/mL; antibacterial activity ([9]; gram-negative and gram-positive bacteria sensitive to kanamycins): high antibacterial activity; antibacterial activity [11]: high antibacterial activity; MIC ([13]; 37°C, 18 hours): 0.78 µg/mL; LD50 [14]: > 100 mg/kg; MIC ([16]; PCI219, 37°C, 18 hours): < 0.2 µg/mL; MIC ([17]; K12ML1410, 37°C, 18 hours): 1.56 µg/mL; MIC ([18]; ATCC10702, 37°C, 18 hours): 1.56 µg/mL; MIC (Proteus vulgaris OX 19; OX19, 37°C, 18 hours): 0.78 µg/mL; MIC ([24]; ATCC607, 37°C, 18 hours): 0.78 µg/mL; MIC ([26]; 37°C, 18 hours): < 0.2 µg/mL; MIC ([27]; PCI602, 37°C, 18 hours): 0.78 µg/mL
NC[C@@H](O)C(=O)N[C@@H]1C[C@H](N)[C@@H](O[C@H]2O[C@H](CN)[C@@H](O)[C@H](O)[C@H]2O)[C@H](O)[C@H]1O[C@H]1O[C@H](CO)[C@@H](O)[C@H](N)[C@H]1O [1-N-D-isoserylkanamycin]	–	–	–	–	–	–	–	–	–	–	–	–	–	–	–	–	–	–	–	the same as those of 1-N-DL-isoserylkanamycin	toxicity relative to the DL-form (mice): the same as those of 1-N-DL-isoserylkanamycin
NC[C@H](O)C(=O)N[C@@H]1C[C@H](N)[C@@H](O[C@H]2O[C@H](CN)[C@@H](O)[C@H](O)[C@H]2O)[C@H](O)[C@H]1O[C@H]1O[C@H](CO)[C@@H](O)[C@H](N)[C@H]1O [1-N-L-isoserylkanamycin]	–	–	–	–	–	–	–	–	–	–	–	–	–	–	–	–	–	–	–	the same as those of 1-N-DL-isoserylkanamycin	toxicity relative to the DL-form (mice): the same as those of 1-N-DL-isoserylkanamycin
NC[C@H]1O[C@H](O[C@H]2[C@H](O)[C@@H](O[C@H]3O[C@H](CO)[C@@H](O)[C@H](N)[C@H]3O)[C@H](N)C[C@@H]2N)[C@H](O)C[C@@H]1O [3'-Deoxykanamycin]	–	–	–	–	–	–	–	–	–	–	–	–	–	–	–	–	–	–	–	–	susceptibility to / inactivation by phosphotransferase (phosphotransferase): not susceptible; activity against kanamycin-resistant strains [30]: actually effective; activity against Escherichia coli JR66/W677 [31]: inactive
NC[C@H]1O[C@H](O[C@H]2[C@H](O)[C@@H](O[C@H]3O[C@H](CO)[C@@H](O)[C@H](N)[C@H]3O)[C@H](N)C[C@@H]2N)[C@H](O)[C@@H](O)[C@@H]1O [KM, kanamycin]	> 100 µg/mL	100 µg/mL (≈ 206 µM)	< 0.2 µg/mL	> 100 µg/mL	12.5 µg/mL (≈ 25.8 µM)	> 100 µg/mL	0.39 µg/mL (≈ 0.805 µM)	> 100 µg/mL	25 µg/mL (≈ 51.6 µM)	3.13 µg/mL (≈ 6.46 µM)	> 100 µg/mL	6.25 µg/mL (≈ 12.9 µM)	50 µg/mL (≈ 103 µM)	> 100 µg/mL	1.56 µg/mL (≈ 3.22 µM)	0.78 µg/mL (≈ 1.61 µM)	6.25 µg/mL (≈ 12.9 µM)	6.25 µg/mL (≈ 12.9 µM)	12.5 µg/mL (≈ 25.8 µM)	–	MIC ([2]; GN315, 18 h): > 100 µg/mL; MIC (Escherichia coli W677; W677, 18 h): 1.56 µg/mL (≈ 3.22 µM); MIC ([4]; K12ML1629, 37°C, 18 hours): > 100 µg/mL; MIC (Escherichia coli K-12; K12, 18 h): 1.56 µg/mL (≈ 3.22 µM); MIC ([6]; 18 h): < 0.2 µg/mL; MIC ([7]; Corynebacterium bovis, 1810, 18 h): 3.13 µg/mL (≈ 6.46 µM); MIC ([8]; NRRLB558, 18 h): < 0.2 µg/mL; inactivation by nucleotidyltransferase (nucleotidyltransferase): inactivating; MIC ([13]; 18 h): 0.78 µg/mL (≈ 1.61 µM); MIC ([16]; PCI219, 18 h): < 0.2 µg/mL; MIC ([17]; K12ML1410, 18 h): 1.56 µg/mL (≈ 3.22 µM); MIC ([18]; ATCC10702, 18 h): 1.56 µg/mL (≈ 3.22 µM); MIC (Proteus vulgaris OX 19; OX19, 18 h): 0.78 µg/mL (≈ 1.61 µM); MIC ([24]; ATCC607, 18 h): 0.78 µg/mL (≈ 1.61 µM); MIC ([26]; 18 h): < 0.2 µg/mL; MIC ([27]; PCI602, 18 h): 0.78 µg/mL (≈ 1.61 µM)
